Data on 1 molecule can be found in patent US20220315532A1, “METHODS FOR PREPARING CDK4/6 INHIBITOR AND SALT AND INTERMEDIATE THEREOF” (Gan & Lee Pharmaceuticals Co., Ltd., priority 2019, published 2022).

Molecules are shown by their SMILES.

Assay type in all cases: physicochemical
Data set [1] can be described thus: solubility in simulated intestinal fluid (FaSSIF, FeSSIF). Particulars: compared with the free base.
Data set [2] is described as follows: physical and chemical stability under high humidity and illumination. Particulars: compared with free base.
The nature of data set [3]: hygroscopicity and crystalline form after moisture absorption.
The nature of a further data set: solubility in water. Particulars: compared with the free base.

In the case of `CC1=Nc2c(F)cc(-c3nc(Nc4ccc(C5CCN(C)CC5)cn4)ncc3F)cc2C12CCCC2.O=C(O)/C=C/C(=O)O` [fumarate, fumarate of 5-fluoro-4-(7′-fluoro-2′-methylspiro[cyclopentane-1,3′-indol]-5′-yl)-N-(5-(1-methylpiperidin-4-yl)pyridin-2-yl)pyrimidin-2-amine], the “solubility in fasted state simulated intestinal fluid (FaSSIF)” value in data set [1] is given as “higher solubility”. Besides, in data set [2], the “physical and chemical stability” value was “better physical and chemical stability”. Besides, the crystalline form stability result in data set [3] (after moisture absorption) is “stable in crystalline form”. Besides, in data set [3] (compared with the free base), the hygroscopicity entry was “low hygroscopicity comparable to the free base”. Besides, the solubility in water entry in “solubility in water” is recorded as “higher solubility”.
